{
  "source": "patent US20190060298A1",
  "about": "“NEW DRUG FOR THE TREATMENT AND/OR PREVENTION OF DEPRESSIVE DISORDERS” (SORBONNE UNIVERSITE, priority 2013, published 2019)",
  "key": {"HPA axis": {"tested_on": "HPA axis", "test": "Activity of the HPA (corticotropic) axis", "format": "in vivo, Sprague-Dawley rats", "settings": "vulnerable animals vs vulnerable animals treated with vehicle", "procedure": "(§1) Tempol (4-hydroxy-2,2,6,6-tetramethylpiperidine 1-oxyl), which was administered at a dose of 288 μmol/kg/day [Sigma-Aldrich, St Louis, Mo., USA]), was dissolved in distilled water and delivered via ALZET osmotic mini-pumps (2002, Charles River Laboratories, France). Tempol- or distilled water-filled pumps were implanted subcutaneously on the back of intruder rats under light anesthesia with isofluorane, 11 days after completion of the social-defeat procedure (D11), and were left in place for 15 days.\nWhen the rats were killed (at D57), blood from trunk vessels was collected into chilled tubes and corticosterone was quantified by RIA (ICN Biomedicals, Orsay, France), using [125I]corticosterone as a radiotracer (Andre et al., 2005). Adrenal glands were removed, dissected free of adhering fat, and weighed. Organ weights are expressed relative to body weights (mg gland/100 g body weight). Rats were decapitated at midday in a quiet separate room, one by one, with the bench cleaned between rats."}, "Sprague-Dawley rats": {"tested_on": "Sprague-Dawley rats", "test": "Depression-like profile after sensitization paradigm (CSD then CMS)", "format": "in vivo", "settings": "TEMPOL administrated before CMS", "procedure": "Sprague-Dawley rats were subjected to chronic social defeat (CSD) and then, four weeks later, to three weeks of chronic mild stress (SSP rats). The chronic mild stress protocol (CMS) was performed as previously described (see Blugeot et al., 2011). The control rats were control intruders (not subjected to CSD) not exposed to the three weeks of CMS (C rats).\nThe CMS protocol is derived from that described by Willner et al. (1992). Briefly, various mild stresses were applied every day, over a period of three weeks. Briefly, from Monday to Friday, every morning, animals were placed in a small cage (10×16×15 cm) for 1 hour. In the afternoon, they were shaken for 10 min (Monday and Thursday), placed in a small cage containing water (2 cm high, Tuesday) or placed in another cage for 4 hours (Wednesday and Friday). Every night, the cage was inclined (45°, Tuesday and Thursday) or contained wet bedding (Wednesday and Friday). On Saturday and Sunday, the rats were subjected to a reversed dark/light cycle for 30 min, every three hours.\n(§2) Tempol (4-hydroxy-2,2,6,6-tetramethylpiperidine 1-oxyl), which was administered at a dose of 288 μmol/kg/day [Sigma-Aldrich, St Louis, Mo., USA]), was dissolved in distilled water and delivered via ALZET osmotic mini-pumps (2002, Charles River Laboratories, France). […]"}, "CA3 neurons": {"tested_on": "CA3 neurons", "test": "Golgi staining, hippocampal CA3 neuron morphology", "format": "in vivo, Sprague-Dawley rats", "settings": "288 μmol/kg/day, 15 days", "procedure": "At D11 and D31, unperfused brains were rapidly removed and processed with the FD Rapid Golgistain kit (FD NeuroTechnologies), as previously described by Blugeot et al. (2011). Histological quantification: for each rat, the total dendrite length of apical CA3 dendritric branches was measured for selected neurons with AxioVision 4.7 software and a Zeiss Imager M1 microscope. 3-5 hippocampal neurons per rat are selected for measurement by an investigator blind to the origin of the experimental animal. Dendritic tracing was quantified by Sholl analysis (Sholl, 1953). The number of intersections between the dendrites and the concentric circles was counted and plotted as a function of the distance from the soma. The density of dendritic spines was estimated by counting the number of apical dendritic spines in 3-4 segments of 15 μm located in the stratum radiatum, at 1000× resolution. Spine density was expressed as the number of spines per 15 μm length of apical dendrite.\nas §1"}, "lipid peroxidation (MDA)": {"tested_on": "lipid peroxidation (MDA)", "test": "Lipid peroxidation (TBARS/MDA) in hippocampus", "format": "in vivo, Sprague-Dawley rats", "settings": "V rats; 288 μmol/kg/day, 15 days from D11; D31", "procedure": "The right hippocampus was homogenized in ice-cold buffer (Tris-HCl 50 mM pH 7.5, 150 mM NaCl, 1 mM EDTA) and used for TBARS and glutathione peroxidase (GPx) assays.\nFor the TBARS assay, protease inhibitors (50 μl/ml), DOC (1%), SDS (0.1%) and Triton® X-100 (0.5%) were added immediately in ice-cold buffer. For the GPx assay, 0.1 M dithiothreitol was added immediately in ice-cold buffer. The homogenates were centrifuged and the supernatants were retained for analysis. Lipid peroxidation was assessed by measuring TBARS formation with a commercial assay kit (Cayman Chemical, Ann Arbor, Mich., USA), in accordance with the manufacturer's instructions. TBARS concentration was calculated from an MDA standard curve and normalized. Total GPx activity in the homogenate was measured in accordance with the kit manufacturer's instructions (Cayman Chemical, Ann Arbor, Mich., USA). GPx specific activity is expressed as nmoles of NADPH consumed per minute per mg of hippocampal tissue. No difference in hippocampal weight was observed between defeated, vulnerable, non-vulnerable and control animals.\nas §2"}, "BDNF": {"tested_on": "BDNF", "test": "Serum BDNF assay", "format": "in vivo, Sprague-Dawley rats", "settings": "vulnerable animals vs vulnerable animals treated with vehicle", "procedure": "Blood samples (200 μl) were collected from conscious rats at various time points (D-4, D5, D11, D31 at midday). These samples were taken from the tail vein and were collected in Eppendorf tubes. The samples were centrifuged to separate off the serum, which was stored at −20° C. until BDNF analysis. BDNF concentrations were determined at a dilution of 1:25, with a commercial BDNF assay (Promega Corporation), in 96-well plates (Corning Costar® EIA plate), according to the manufacturer's instructions.\nAnother serum BDNF was carried out. Blood samples (200 μl) of awake rats were collected at different time-points (D-4, D9, D35, D57 at midday) from the vein of the tail into eppendorf tubes. After centrifugation, serum was separated and stored at −20° C. until analysis for BDNF. BDNF concentrations were determined at dilution of 1:25 with a commercial BDNF assay (Promega Corporation), in 96-well plates (Corning Costar® EIA plate), according to the manufacturer's instructions.\nas §2"}, "aconitase": {"tested_on": "aconitase", "test": "Aconitase activity in hippocampus", "format": "in vivo, Sprague-Dawley rats", "settings": "V rats; 288 μmol/kg/day, 15 days from D11; D31", "procedure": "Rats were killed by decapitation and their right hippocampi were rapidly removed and homogenized in ice-cold buffer (5 mM Tris-HCl pH 7.5, 210 mM mannitol, 70 mM sucrose, 1 mM EDTA and 2.3 mM sodium citrate). Homogenates were rapidly centrifuged (14,000×g, 10 min, 4° C.) and the pellets were immediately frozen in liquid nitrogen and stored at −80° C. Aconitase activity was measured spectrophotometrically (Gardner et al., 1994), by monitoring the linear absorbance change at 340 nm, at 25° C., in a 1.0-ml reaction mixture containing 50 mM Tris HCl (pH 7.5), 0.05% BSA, 2 mM sodium citrate, 2 mM MnCl2, 0.4 mM NADP+, 0.85 units of isocitrate dehydrogenase, and 10-20 μg of protein extract. The absorbance change associated with aconitase activity was linear with respect to time and protein concentration. One milliunit of aconitase activity was defined as the amount of enzyme catalyzing the formation of 1 nmol of D-isocitrate per min and per mg.\nas §2"}},
  "data": [
    {"smiles": "CC1(C)CC(O)CC(C)(C)N1[O]", "note": "[TEMPOL, 4-hydroxy-2,2,6,6-tetramethylpiperidin-1-oxyl]", "values": [
      {"measurement": "adrenal gland weight", "setting": "HPA axis", "result": "prevented the increase"},
      {"measurement": "corticosterone levels", "setting": "HPA axis", "result": "prevented the increase of corticosterone levels"},
      {"measurement": "depression-like profile generated by the CMS", "setting": "Sprague-Dawley rats", "result": "abolished"},
      {"measurement": "dendritic trees (total apical dendrite length of CA3 neurons)", "setting": "CA3 neurons; NV and V animals, D31", "result": "fully restored"},
      {"measurement": "spine density (CA3 dendritic spines)", "setting": "CA3 neurons; NV and V animals, D31", "result": "fully restored"},
      {"measurement": "total length of hippocampal neurons", "setting": "CA3 neurons; non-vulnerable and control animals vs vehicle-treated", "result": "tends to increase"},
      {"measurement": "lipid peroxidation (MDA)", "setting": "lipid peroxidation (MDA)", "result": "lack of"},
      {"measurement": "serum BDNF levels", "setting": "BDNF", "result": "induced the recovery of serum BDNF levels"},
      {"measurement": "aconitase activity", "setting": "aconitase", "result": "lack of aconitase activity dysfunction"}
    ]}
  ]
}
